Measurements: patent US12295970B2, “Imidazoquinoline compounds and prodrugs thereof” (UNIVERSITY OF KANSAS, priority 2019, dated 2025)

Experiments:
Type in all cases: cell-based
[1] = target: T1, hTLR7 (Homo sapiens, UniProt Q9NYK1); experiment: SEAP reporter assay for hTLR-7 activity (HEK-Blue hTLR7 cells); conditions: ± SD; hTLR7 transfected HEK-Blue cells, Null subtracted; three independent measurements; 12 hours; read-out: EC50 TLR7
T1 construct: host or cells: HEK293 (HEK-Blue hTLR7)
T1 sequence (Q9NYK1 27-1049): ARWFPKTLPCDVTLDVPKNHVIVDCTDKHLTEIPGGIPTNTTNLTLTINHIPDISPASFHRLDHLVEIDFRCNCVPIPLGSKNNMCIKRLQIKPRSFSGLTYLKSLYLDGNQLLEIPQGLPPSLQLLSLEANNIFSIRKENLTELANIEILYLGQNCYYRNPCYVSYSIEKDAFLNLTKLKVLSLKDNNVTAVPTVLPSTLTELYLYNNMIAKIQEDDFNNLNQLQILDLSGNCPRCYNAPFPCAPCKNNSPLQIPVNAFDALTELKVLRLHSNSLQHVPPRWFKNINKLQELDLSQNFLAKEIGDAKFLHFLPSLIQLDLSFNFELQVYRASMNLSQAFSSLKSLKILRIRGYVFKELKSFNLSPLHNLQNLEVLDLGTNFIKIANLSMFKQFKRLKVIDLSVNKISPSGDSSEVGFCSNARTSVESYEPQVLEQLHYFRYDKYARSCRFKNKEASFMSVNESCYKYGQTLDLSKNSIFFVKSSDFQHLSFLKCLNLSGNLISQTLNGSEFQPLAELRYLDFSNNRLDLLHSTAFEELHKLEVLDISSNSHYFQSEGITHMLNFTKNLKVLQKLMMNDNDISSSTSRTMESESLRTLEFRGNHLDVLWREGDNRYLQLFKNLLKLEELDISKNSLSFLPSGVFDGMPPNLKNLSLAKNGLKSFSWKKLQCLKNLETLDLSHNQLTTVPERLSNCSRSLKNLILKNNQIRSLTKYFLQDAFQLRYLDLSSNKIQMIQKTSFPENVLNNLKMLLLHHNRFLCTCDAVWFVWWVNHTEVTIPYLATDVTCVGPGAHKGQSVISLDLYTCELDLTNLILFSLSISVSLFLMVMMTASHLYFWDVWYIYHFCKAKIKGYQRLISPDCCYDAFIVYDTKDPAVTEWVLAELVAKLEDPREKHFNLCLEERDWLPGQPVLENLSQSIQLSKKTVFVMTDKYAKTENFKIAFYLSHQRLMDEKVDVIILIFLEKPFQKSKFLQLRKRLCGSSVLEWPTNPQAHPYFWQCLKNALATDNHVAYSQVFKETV
Experimental: (§1) TLR activation induces NF-κB production and subsequent SEAP secretion, which is measured using HEK-Detection media (InvivoGen) containing a colorimetric substrate for SEAP (UV-Vis, 637 nm).
(§2) The experiments followed manufacturer protocol as follows: SEAP levels were measured via absorbance at 637 nm using HEK-Blue Detection cell culture medium (InvivoGen), which contains a SEAP-specific colorimetric substrate. Compound stock solutions were first diluted in sterile DMSO at a concentration of 10 mM. Lower concentrations were prepared by serial dilution of the initial 10 mM stock samples into sterile DMSO and these solutions (22 μL) were subsequently diluted into sterile H2O (198 μL) using a BioTek Precision XS pipetting system. HEK-Blue hTLR7, HEK-Blue hTLR8, Null 1−k, and Null 1 cell suspensions in sterile HEK-Blue Detection medium were prepared at a density of 220,000 cells per mL. Clear bottom, 96-well tissue culture treated plates (Corning) were seeded with hTLR7 and Null 1−k or hTLR8 and Null 1 cell suspensions (180 μL/well), after which 20 μL of the various sample concentrations in 10% v/v DMSO/H2O were added (20 μL) in quadruplicate wells to yield the desired testing concentration in 1% v/v DMSO cell suspension. Plates were incubated at 37° C. and 5% CO2 in the dark. Absorbance measurements were taken at 637 nm at 12 hours, 4 replicates per concentration point, per cell line (hTLR7, hTLR8, Null 1−k, Null 1). Three independent measurements on different days were performed for each analog.
(§3) Corresponding well absorbance values for each concentration tested were averaged with respect to days tested, and the average relative NF-κB induction (UV-Vis, 637 nm) of the null cell lines (Null 1-k or Null 1) were subtracted from the respective average TLR expressing cell line (hTLR7 or hTLR8) absorbance averages. […] The three independent, normalized averages for each analog were then pooled, and the data was fit using the Hill-Slope model (GraphPad Prism v7.0) using the non-linear fit from the [Agonist] vs. response—Variable Slope (four parameters) with a hill slope constrained to less than 3.

[2] = target: T2, hTLR8 (Homo sapiens, UniProt Q9NR97); experiment: SEAP reporter assay for hTLR-8 activity (HEK-Blue hTLR8 cells); conditions: ± SD; hTLR8 transfected HEK-Blue cells, Null subtracted; three independent measurements; 12 hours; >100 = no activity observed at 100 μM; read-out: EC50 TLR8
T2 construct: host or cells: HEK293 (HEK-Blue hTLR8)
T2 sequence (Q9NR97 27-1041): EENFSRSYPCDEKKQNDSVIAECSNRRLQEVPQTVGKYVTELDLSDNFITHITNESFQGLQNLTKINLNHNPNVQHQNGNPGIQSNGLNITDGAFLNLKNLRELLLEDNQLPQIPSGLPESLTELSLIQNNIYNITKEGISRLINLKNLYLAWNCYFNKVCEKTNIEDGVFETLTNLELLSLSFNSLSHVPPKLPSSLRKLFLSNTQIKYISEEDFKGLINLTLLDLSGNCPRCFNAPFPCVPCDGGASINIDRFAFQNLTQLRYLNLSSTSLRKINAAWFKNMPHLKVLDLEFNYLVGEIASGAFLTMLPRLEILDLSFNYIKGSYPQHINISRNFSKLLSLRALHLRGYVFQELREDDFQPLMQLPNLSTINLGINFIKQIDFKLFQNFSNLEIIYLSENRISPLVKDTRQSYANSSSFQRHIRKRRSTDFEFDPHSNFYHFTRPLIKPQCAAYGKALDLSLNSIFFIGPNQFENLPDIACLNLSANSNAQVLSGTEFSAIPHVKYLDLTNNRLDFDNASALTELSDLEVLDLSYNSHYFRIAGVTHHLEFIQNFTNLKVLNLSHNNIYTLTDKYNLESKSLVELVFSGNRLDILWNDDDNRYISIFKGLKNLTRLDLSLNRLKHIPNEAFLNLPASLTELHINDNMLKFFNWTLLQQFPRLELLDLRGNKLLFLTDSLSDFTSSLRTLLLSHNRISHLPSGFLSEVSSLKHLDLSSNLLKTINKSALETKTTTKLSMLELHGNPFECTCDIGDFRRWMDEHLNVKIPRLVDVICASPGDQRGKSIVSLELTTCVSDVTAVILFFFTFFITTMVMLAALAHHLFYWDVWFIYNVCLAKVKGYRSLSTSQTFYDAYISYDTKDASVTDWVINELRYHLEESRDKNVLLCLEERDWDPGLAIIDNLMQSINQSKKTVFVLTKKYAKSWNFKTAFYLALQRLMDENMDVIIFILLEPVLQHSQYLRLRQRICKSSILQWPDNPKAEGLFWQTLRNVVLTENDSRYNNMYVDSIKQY
Experimental: as §1, §2, §3

[3] = tested on: canine peripheral blood mononuclear cells (cPBMCs); experiment: Cytokine production in canine PBMCs by ELISA (Example 2); conditions: ± SD, 20 μM, 29 hours, ELISA, triplicate
Experimental: The imidazoquinolines were further screened for cytokine production in canine peripheral blood mononuclear cells (cPBMCs). […] TNFα and IL-12 were chosen as they are typically seen in a Th-1 cytokine response.
Peripheral blood from a healthy canine donor was obtained with appropriate informed consent of the owner and under approved institutional guidelines. Blood (8 mL per tube) was drawn via sterile venipuncture into a BD Vacutainer cell preparation tube containing sodium heparin (BD Biosciences). PBMCs were isolated within one hour following procurement by density gradient centrifugation according to the manufacturer protocol and resuspended to 2.22×10^6 cells/mL in sterile RPMI 1640 medium with L-glutamine (Gibco) supplemented with 100 U/mL penicillin, 100 μg/mL streptomycin (Corning) and 10% (v/v) heat-inactivated Fetalgro (RMBIO). Corning 3917, 96-well tissue culture treated plates were seeded with the PBMC suspension (180 μL/well), 20 μL of the serially diluted TLR agonists were added in triplicate to yield the desired concentrations in a 1% (v/v) DMSO cell suspension. Cells were incubated at 37° C. in 5% CO2 for 9 hours (FIGS. 3A-3D) or 29 hours (Table 2) after which supernatants were removed and frozen at −80° C. Cytokine secretion levels were measured by ELISA (Duoset, R&D Systems) according to the manufacturer protocol. Samples and standards (n=3) were thawed and plated onto a Maxisorp flat-bottom, 384-well plate (Thermo Scientific) using a BioTek Precision XS pipetting system. Cytokine concentrations were determined by a hyperbolic or four-parameter logistic non-linear regression of the recombinant standards and subsequent interpolation using Graphpad Prism 7.0.

Row | SMILES | EC50 [1] | EC50 [2] | Cytokine IFNg [3] | Cytokine IL-2 [3] | Cytokine IL-6 [3] | Cytokine IL-10 [3] | Cytokine IL-12 [3] | Cytokine TNFa [3]
1 | CCOCc1nc2c(N)nc3cc(C#N)ccc3c2n1CC(C)(C)O [Compound 13, 4-Amino-7-carbonitrile-2-(ethoxymethyl)-1-(2-hydroxy-2-methylpropyl)-1H-imidazo[4,5-c]quinoline] | 3.5 ± 0.7 µM | 27 ± 6 µM | 0.2 ± 0.4 pg/mL | 46 ± 42 pg/mL | 214 ± 69 pg/mL | 6 ± 3 pg/mL | 13 ± 3 pg/mL | 80 ± 20 pg/mL
2 | CCOCc1nc2c(N)nc3cc(C#N)ccc3c2n1CC(C)C [Compound 11, 4-Amino-7-carbonitrile-2-(ethoxymethyl)-1-(2-methylpropyl)-1H-imidazo[4,5-c]quinoline] | 6.8 ± 0.7 µM | > 100 µM | 4 ± 3 pg/mL | 57 ± 14 pg/mL | 71 ± 20 pg/mL | 6 ± 2 pg/mL | 190 ± 62 pg/mL | 7 ± 1 pg/mL
3 | CCCCc1nc2c(N)nc3cc(OC)ccc3c2n1CC(C)(C)O [Compound 5, 4-Amino-2-butyl-1-(2-hydroxy-2-methylpropyl)-7-methoxy-1H-imidazo[4,5-c]quinoline] | 0.081 ± 0.009 µM | 1.7 ± 0.3 µM | 14.5 ± 6 pg/mL | 82 ± 56 pg/mL | 290 ± 63 pg/mL | 14 ± 2 pg/mL | 2000 ± 160 pg/mL | 64 ± 12 pg/mL
4 | CCCCc1nc2c(N)nc3cc(C#N)ccc3c2n1CC(C)C [Compound 10, 4-Amino-2-butyl-7-carbonitrile-1-(2-methylpropyl)-1H-imidazo[4,5-c]quinoline] | 0.99 ± 0.4 µM | > 100 µM | 13 ± 5 pg/mL | 60 ± 41 pg/mL | 350 ± 95 pg/mL | 37 ± 10 pg/mL | 920 ± 170 pg/mL | 10 ± 1 pg/mL
5 | CCCCc1nc2c(N)nc3cc(OC)ccc3c2n1CC(C)C [Compound 4, 4-Amino-2-butyl-7-methoxy-1-(2-methylpropyl)-1H-imidazo[4,5-c]quinoline] | 0.11 ± 0.01 µM | > 100 µM | 0 pg/mL | 30 ± 29 pg/mL | 500 ± 140 pg/mL | 37 ± 13 pg/mL | 746 ± 130 pg/mL | 49 ± 9 pg/mL
